Measurements: PMC3518498 (Oncoimmunology, 2012)

Key:
HLA-A2 (A*0201) [1] = molecular target: T1, HLA-A2 (A*0201) (Homo sapiens, UniProt P04439, D140Y/D185E/D98H/E176V/E277Q/G131W/G231S/I119V/I121R/I166T/I218V/L300P/L318F/N151K/N90K/P208A/P217A/Q86G/Q94H/R138H/R169H/T345S); test: iTopia initial binding assay; conditions: Table 1
HLA-A2 (A*0201) [2] = molecular target: T1, HLA-A2 (A*0201); test: iTopia stability; conditions: Table 1
[3] = tested on: HLA-A2 transgenic (HHD) mice; test: Peptide immunization of HHD mice, IFNγ intracellular staining of splenocytes; type: in vivo, mouse; conditions: for Average % CD8+IFNγ+ cells: group average, splenocytes stimulated with native peptide

Sequence	Initial binding, % pos control (HLA-A2 (A*0201) [1]) [% pos control]	Binding after 8 h incubation w/o free peptide, % pos control (HLA-A2 (A*0201) [2]) [% pos control]	MHC complex stability (T1/2) (HLA-A2 (A*0201) [2]) [h]	Average % CD8+IFNγ+ cells ([3]; HHD mice) [% CD8+IFNγ+ cells]	Fold higher native peptide-specific T-cell response with analog ([3]; analog vs. native peptide immunization, HHD mice) [fold]	Corresponding native peptide: CMIR, % CD8+IFNγ+ cells ([3]; HHD mice immunized with the native peptide, Table 1) [% CD8+IFNγ+ cells]	Corresponding native peptide: Fraction of responders ([3]; HHD mice immunized with the native peptide, responder > 0.1%, Table 1)	Range of individual mouse responses, % CD8+IFNγ+ cells ([3]; HHD mice, individual animals)
ALCRWGLLV [H.5.V9]	72.3	33.9	6.2	–	–	–	–	–
ALVGILLVVV [H.657(10).L2]	13.8	17.8	–	–	–	–	–	–
ALVGIMIGV [C.687.L2]	73.7	76.2	26.3	–	–	–	–	–
AVVGILLVV [H.657]	20.6	12.0	8.6	–	–	–	–	–
FLDLQVNSL [T.986]	69.5	54.5	7.8	–	–	–	–	–
FLHWLMSVYV [T.544]	48.0	74.4	40.0	–	–	–	–	–
FLVDDFLLV [T.865.F1]	88.4	76.2	13.2	> 0.1	1.9	–	–	–
ILAKFLHWLM [T.540(10)]	–	–	–	–	–	0.06	1/5	–
ILAKFLHWLV [T.540(10).V10]	99.8	88.8	16.8	> 0.1	–	–	–	–
KLFGSLAFL	79.7	114.9	40.0	–	–	–	–	–
LLDTRTLEV [T.934]	80.2	66.3	21.6	–	–	–	–	–
RLTVTTITV [C.310.L2]	61.2	64.4	25.4	–	–	–	–	3.0–14.3%
VVLGVVFGV [H.665.V9]	65.8	72.7	40.0	–	–	–	–	–
YLSGANLNV [C.605.V9]	73.2	78.5	27.4	–	–	–	–	–
